The results in this text go back to patent publication US20110207926A1, “NOVEL DIHYDROTRIAZINE DERIVATIVE” (HAMARI CHEMICALS, LTD., priority 2008, published 2011).

The structures appear in SMILES notation. Values after ≈ are worked out from the molar mass of the structure shown. Read-outs that look alike come from different tables or passages of the source.

Holding throughout (assay): Bactericidal activity test (MBC measurement)
One assay relates to E. coli ATCC 25922. The format is cell-based, Escherichia coli. How it is done: (§1) Each strain was cultured in Trypticase Soy agar medium for 18 to 20 hr, suspended in 0.1% peptone saline, and prepared to OD 600 nm, 1.0 McFarland. The suspension was further diluted with 0.1% peptone saline to give a test bacteria solution (targeted value; 2×10^7 CFU/mL).
(§2) At 0.5, 1 and 3 min from the start of the reaction, a part of the reaction mixture was sampled and mixed with an equal amount of a neutralizing agent (10% Tween 80, 3% lecithin/aqueous solution) to terminate the bactericidal reaction. The reaction mixture was inoculated to a 96 well microplate dispensed with 180 μL of Tripticase Soy liquid medium in advance, and statically cultured at 37° C. for 20 to 24 hr. Thereafter, the presence or absence of growth was visually evaluated, and the minimum concentration at which growth was not observed was taken as the minimal bactericidal concentration (MBC value) of each action time. The numerical values in the Tables show MBC, the unit is μg/mL, S. aureus means Staphylococcus aureus, MRSA means methicillin-resistant Staphylococcus aureus, E. coli means Escherichia coli, and P. aeruginosa means Pseudomonas aeruginosa.

A further assay has as its system S. aureus ATCC 6538. Type of assay: cell-based, Staphylococcus aureus. How it is done:
as §1, §2

The next assay concerns P. aeruginosa ATCC 27853. The format is cell-based, Pseudomonas aeruginosa. As for the experimental part:
as §1, §2

A further assay deals with MRSA ATCC 33591. The format is cell-based, methicillin-resistant Staphylococcus aureus. How it is done: as §1, §2
The mark [1] stands for this setting: Escherichia coli, ATCC25922, 0.5 min, E. coli ATCC 25922, action time 0.5 min, read-out: MBC.
The mark [2] stands for this setting: Escherichia coli, ATCC25922, 1 min, E. coli ATCC 25922, action time 1 min, read-out: MBC.
Setting [3] is: Escherichia coli, ATCC25922, 0.05 h, E. coli ATCC 25922, action time 3 min, read-out: MBC.
Setting [4] is: Staphylococcus aureus, ATCC6538, 0.5 min, S. aureus ATCC 6538, action time 0.5 min, read-out: MBC.
Setting [5] is: Staphylococcus aureus, ATCC6538, 1 min, S. aureus ATCC 6538, action time 1 min, read-out: MBC.
[6] abbreviates: Staphylococcus aureus, ATCC6538, 0.05 h, S. aureus ATCC 6538, action time 3 min, read-out: MBC.
Setting [7] is: Pseudomonas aeruginosa, ATCC27853, 0.5 min, P. aeruginosa ATCC 27853, action time 0.5 min, read-out: MBC.
Setting [8] is: Pseudomonas aeruginosa, ATCC27853, 1 min, P. aeruginosa ATCC 27853, action time 1 min, read-out: MBC.
Where [9] appears, read: Pseudomonas aeruginosa, ATCC27853, 0.05 h, P. aeruginosa ATCC 27853, action time 3 min, read-out: MBC.
The mark [10] stands for this setting: Staphylococcus aureus, 0.5 min, MRSA ATCC 33591, action time 0.5 min, read-out: MBC.
Where [11] appears, read: Staphylococcus aureus, 1 min, MRSA ATCC 33591, action time 1 min, read-out: MBC.
Setting [12] is: Staphylococcus aureus, 0.05 h, MRSA ATCC 33591, action time 3 min, read-out: MBC.

The term MBC denotes the smallest concentration meeting the test's criterion for killing. Regarding `CC(=O)O.CCCCCCCCNC1=NC(C)(C)NC(N(CC)Cc2ccccc2)=N1` [Example 13, 1,6-dihydro-6,6-dimethyl-N^4-octyl-N^2-benzyl-N^2-ethyl-1,3,5-triazine-2,4-diamine acetate], the MBC in the assay on E. coli ATCC 25922 (setting [1]) worked out at 25 µg/mL; with E. coli ATCC 25922 (setting [2]) it was 18.8 µg/mL; in the assay with E. coli ATCC 25922 (setting [3]), 12.5 µg/mL; with S. aureus ATCC 6538 (setting [4]), 50 µg/mL; in the assay with S. aureus ATCC 6538 (setting [5]) it was 25 µg/mL; in the assay on S. aureus ATCC 6538 (setting [6]) it was 18.8 µg/mL. Also, the MBC was 18.8 µg/mL with P. aeruginosa ATCC 27853 (setting [7]); 18.8 µg/mL with P. aeruginosa ATCC 27853 (setting [8]); 18.8 µg/mL in the assay with P. aeruginosa ATCC 27853 (setting [9]); 62.5 µg/mL in the assay on MRSA ATCC 33591 (setting [10]); 37.5 µg/mL in the assay on MRSA ATCC 33591 (setting [11]); 18.8 µg/mL in the assay on MRSA ATCC 33591 (setting [12]).

For the compound `CCCCCCCCNC1=NC(C)(C)NC(N(C)CCc2ccccc2)=N1` [Example 14, 1,6-dihydro-6,6-dimethyl-N^4-octyl-N^2-methyl-N^2-(2-phenylethyl)-1,3,5-triazine-2,4-diamine], the MBC in the assay with E. coli ATCC 25922 (setting [1]) worked out at 25 µg/mL (≈ 67.3 µM); in the assay with E. coli ATCC 25922 (setting [2]) it was 25 µg/mL (≈ 67.3 µM); in the assay with E. coli ATCC 25922 (setting [3]), 12.5 µg/mL (≈ 33.6 µM); with S. aureus ATCC 6538 (setting [4]), 75 µg/mL (≈ 202 µM); with S. aureus ATCC 6538 (setting [5]), 37.5 µg/mL (≈ 101 µM); in the assay on S. aureus ATCC 6538 (setting [6]) it was 18.8 µg/mL (≈ 50.6 µM). Moreover, the MBC came to 25 µg/mL (≈ 67.3 µM) in the assay on P. aeruginosa ATCC 27853 (setting [7]); 18.8 µg/mL (≈ 50.6 µM) in the assay on P. aeruginosa ATCC 27853 (setting [8]); 12.5 µg/mL (≈ 33.6 µM) with P. aeruginosa ATCC 27853 (setting [9]); 62.5 µg/mL (≈ 168 µM) with MRSA ATCC 33591 (setting [10]); 31.3 µg/mL (≈ 84.2 µM) in the assay with MRSA ATCC 33591 (setting [11]); 15.7 µg/mL (≈ 42.3 µM) with MRSA ATCC 33591 (setting [12]).

In the case of `CCCCCCCCCCNC1=NC(C)(C)NC(N(C)CCC)=N1` [Example 16, 1,6-dihydro-6,6-dimethyl-N^4-decyl-N^2-methyl-N^2-propyl-1,3,5-triazine-2,4-diamine], the MBC in the assay on E. coli ATCC 25922 (setting [1]) is 18.8 µg/mL (≈ 55.7 µM); in the assay on E. coli ATCC 25922 (setting [2]), 18.8 µg/mL (≈ 55.7 µM); in the assay on E. coli ATCC 25922 (setting [3]), 9.4 µg/mL (≈ 27.8 µM); in the assay on S. aureus ATCC 6538 (setting [4]), 75 µg/mL (≈ 222 µM); in the assay on S. aureus ATCC 6538 (setting [5]), 50 µg/mL (≈ 148 µM); in the assay on S. aureus ATCC 6538 (setting [6]) it was 25 µg/mL (≈ 74.1 µM). Also, the MBC amounted to 25 µg/mL (≈ 74.1 µM) with P. aeruginosa ATCC 27853 (setting [7]); 18.8 µg/mL (≈ 55.7 µM) in the assay with P. aeruginosa ATCC 27853 (setting [8]); 18.8 µg/mL (≈ 55.7 µM) in the assay on P. aeruginosa ATCC 27853 (setting [9]); 100 µg/mL (≈ 296 µM) in the assay with MRSA ATCC 33591 (setting [10]); 37.5 µg/mL (≈ 111 µM) in the assay with MRSA ATCC 33591 (setting [11]); 18.8 µg/mL (≈ 55.7 µM) in the assay on MRSA ATCC 33591 (setting [12]).

`CCCCCCCCCCCNC1=NC(C)(C)NC(N(C)Cc2ccc(N)cc2)=N1.Cl.Cl` [Example 17, 1,6-dihydro-6,6-dimethyl-N^4-undecyl-N^2-(4-aminobenzyl)-N^2-methyl-1,3,5-triazine-2,4-diamine dihydrochloride]: the MBC in the assay with E. coli ATCC 25922 (setting [1]) stood at 25 µg/mL; in the assay on E. coli ATCC 25922 (setting [2]) it was 18.8 µg/mL; with E. coli ATCC 25922 (setting [3]) it was 12.5 µg/mL; in the assay with S. aureus ATCC 6538 (setting [4]) it was 25 µg/mL; in the assay on S. aureus ATCC 6538 (setting [5]), 15.7 µg/mL; in the assay with S. aureus ATCC 6538 (setting [6]), 7.8 µg/mL. The MBC with P. aeruginosa ATCC 27853 (setting [7]) was 37.5 µg/mL; with P. aeruginosa ATCC 27853 (setting [8]), 18.8 µg/mL; in the assay with P. aeruginosa ATCC 27853 (setting [9]) it was 9.4 µg/mL; in the assay with MRSA ATCC 33591 (setting [10]), 18.8 µg/mL; with MRSA ATCC 33591 (setting [11]) it was 12.5 µg/mL; in the assay on MRSA ATCC 33591 (setting [12]), 6.3 µg/mL.

Consider `CCCCCCCCCCCCCCN(C)C1=NC(C)(C)NC(N)=N1.Cl` [Example 18, N^4-tetradecyl-N^4-methyl-1,6-dihydro-6,6-dimethyl-1,3,5-triazine-2,4-diamine hydrochloride], for which the MBC was 12.5 µg/mL in the assay with E. coli ATCC 25922 (setting [1]); 12.5 µg/mL in the assay with E. coli ATCC 25922 (setting [2]); 6.3 µg/mL in the assay on E. coli ATCC 25922 (setting [3]); 18.8 µg/mL with S. aureus ATCC 6538 (setting [4]); 12.5 µg/mL in the assay with S. aureus ATCC 6538 (setting [5]); 4.7 µg/mL in the assay on S. aureus ATCC 6538 (setting [6]). Further, the MBC came to 18.8 µg/mL in the assay with P. aeruginosa ATCC 27853 (setting [7]); 12.5 µg/mL in the assay with P. aeruginosa ATCC 27853 (setting [8]); 9.4 µg/mL in the assay on P. aeruginosa ATCC 27853 (setting [9]); 18.8 µg/mL in the assay on MRSA ATCC 33591 (setting [10]); 9.4 µg/mL with MRSA ATCC 33591 (setting [11]); 4.7 µg/mL in the assay with MRSA ATCC 33591 (setting [12]).

For the compound `N=C(NCCCCCCNC(=N)NC(=N)Nc1ccc(Cl)cc1)NC(=N)Nc1ccc(Cl)cc1.O=C(O)[C@H](O)[C@@H](O)[C@H](O)[C@H](O)CO.O=C(O)[C@H](O)[C@@H](O)[C@H](O)[C@H](O)CO` [control, chlorhexidine gluconate, reference compound], the MBC in the assay with E. coli ATCC 25922 (E. coli ATCC 25922, action time 0.5 min) was 100 µg/mL; in the assay on S. aureus ATCC 6538 (S. aureus ATCC 6538, action time 0.5 min), over 200 µg/mL; against S. aureus ATCC 6538 (S. aureus ATCC 6538, action time 1 min), over 200 µg/mL; with S. aureus ATCC 6538 (S. aureus ATCC 6538, action time 3 min) it was over 200 µg/mL; with P. aeruginosa ATCC 27853 (P. aeruginosa ATCC 27853, action time 0.5 min), over 200 µg/mL; in the assay on MRSA ATCC 33591 (MRSA ATCC 33591, action time 0.5 min), over 200 µg/mL. Also, the MBC was over 200 µg/mL against MRSA ATCC 33591 (MRSA ATCC 33591, action time 1 min) and 200 µg/mL in the assay on MRSA ATCC 33591 (MRSA ATCC 33591, action time 3 min).
